Reference: patent EP0180416A2, “Benzoic acid analogues and their production” (Takeda Chemical Industries, Ltd., priority 1984, dated 1986)
Counter-ions that a name gives are not always drawn.

What was measured:
[1] = test system: synthetic leukotriene D4 (LTD4); test: Bronchoconstriction due to LTD4 in guinea pigs (Konzett-Rossler method); assay type: in vivo, Guinea pigs of Hartley strain; details: Cavia porcellus, 1 h; 50% inhibitory dose; oral, one hour before LTD4 (10 ug/kg i.v.); inhibition of overflow volume at maximal response; anesthetized guinea pigs; read-out: ID50(p.o.)
Procedure: Guinea pigs of Hartley strain, both male and female, with body weights about 400 g were assigned to groups of 6 to 10 individuals, and the bronchoconstriction due to LTD4 was measured according to the method of Konzett-Rossler [Konzett, H. and ROssler, R.: Naunyn-Schmiedebergs Archiv far Experimentelle Pathologie und Pharmakologie 195, 71-74 (1940)]. Each guinea pig was fixed in a supine position under urethane anesthesia (1.5 g/kg, intraperitoneal) and the trachea was incised and connected to an artificial respiration apparatus, Rodent Respirator Model 680 [Harvard Apparatus Company, U.S.A.] via a cannula. The branch tube of this tracheal cannula was connected to a Bronchospasm Transducer Model 7020 [Ugobasil Biological Researach Apparatus, Italy]. Under the conditions of 4 to 7 ml of air per stroke, 70 strokes per minute and a lung loading pressure of 10 cm H2O, the volume of overflowing air was recorded on a Rectigraph-8S (Sanei Sokki Ltd., Japan) via a transducer. After administration of gallamine·triethiodide (1 mg/kg, i.v.), a solution of LTD4 in physiological saline (10 ug/kg) was intravenously administered and the bronchoconstriction elicited thereby was recorded for 15 minutes. The compound was used as suspended in a 5% solution of gum arabic or dissolved in water, and administered orally in a volume of 0.2 ml per 100 g body weight one hour before LTD4 loading. LTD4 was administered through a cannula inserted into the jugular vein. LTD4 was used as dissolved in physiological saline, which was taken from a stock stored in methanol (1 mg/l mℓ methanol) at -70°C.

[2] = test system: mice; test: Acute toxicity in mice; assay type: in vivo, mice of Jcl:ICR strain; details: 2000 mg/kg, male mice; for symptoms after oral administration (acute toxicity): suspended in 5% gum arabic; for autopsy findings: oral, autopsy after 7 days
Procedure: Five 5-week-old male mice of Jcl:ICR strain, weighing about 30 g each, were used. Compound (I)-2 or (I)-4 was suspended in a 5% solution of gum arabic and administered orally at the level of 0.2 ml per 10 grams body weight.

Which ED50 [1] does the source give for `CCCc1c(OCCCOc2ccc(C(=O)OCCN3CCOCC3)cc2Br)ccc(C(C)=O)c1O` [(I)-2, 2-morpholinoethyl 4-[3-(4-acetyl-3-hydroxy-2-propylphenoxy)propoxy]-3-bromobenzoate] here?
The ED50 was 41 µmol/kg.

And the “symptoms after oral administration (acute toxicity)” value [2]?
The value was “no symptoms”.

And the autopsy findings [2]?
Its autopsy findings is “did not reveal any abnormalities”.

For `CCCc1c(OCCCOc2ccc(C(=O)OCCCN(C)C)cc2Br)ccc(C(C)=O)c1O` [(I)-4, 3-(N,N-dimethylamino)propyl 4-[3-(4-acetyl-3-hydroxy-2-propylphenoxy)propoxy]-3-bromobenzoate], which ED50 [1] is on record?
The ED50 was 52 µmol/kg.

What about the “symptoms after oral administration (acute toxicity)” value [2] of the same compound?
The value was “no symptoms”.

And the autopsy findings [2]?
Its autopsy findings is “did not reveal any abnormalities”.

How did the ED50 [1] turn out when `CCCc1c(OCCCOc2ccc(C(=O)OCCN3CCN(C)CC3)cc2Br)ccc(C(C)=O)c1O` [(I)-3, 2-(4-methyl-l-piperazinyl)ethyl 4-[3-(4-acetyl-3-hydroxy-2-propylphenoxy)propoxy]-3-bromobenzoate· dihydrochloride·monohydrate] was run?
Its ED50 is 49 µmol/kg.

With `CCCc1c(OCCCOc2ccc(C(=O)O)cc2Br)ccc(C(C)=O)c1O` [Control compound (A), 4-[3-(4-acetyl-3-hydroxy-2-propylphenoxy)propoxy]-3-bromobenzoic acid, reference compound] as the compound, how does the ED50 [1] read?
Its ED50 is 146 µmol/kg.

How did the ED50 [1] turn out when `CCCc1c(OCCCOc2ccc(C(=O)OCCN(C)C)cc2Br)ccc(C(C)=O)c1O` [(I)-1, 2-(N,N-dimethylamino)ethyl 4-[3-(4-acetyl-3-hydroxy-2-propylphenoxy)propoxy]-3-bromobenzoate·hydrochloride·monohydrate] was run?
The ED50 was 49 µmol/kg.
